Series [1] deals with B16.F1 and TRP-2 pulsed EL4. In words: CTL cytotoxicity against TRP-2 presenting cells after immunization. It counts as in vivo, mouse. The settings on record: free versus liposomal. Here is the method: In another set of experiments antigen-specificity of cytotoxic T lymphocytes after liposomal vaccination (FIG. 20) was analyzed. Mice were immunized with AVE3-encapsulated or free TRP-2 and CpG-PTO as described above. Cells prepared from lymph nodes were then tested for cytotoxicity using as targets the mouse melanoma cell line B16.F1 know to present TRP-2 in the context of H-2K^b, TRP-2 pulsed EL4 cells, OVA peptide-pulsed EL4 cells, unpulsed EL4 cells, and YAC-1 cells to exclude a potential NK cell activity. […] As described above 10-fold higher amounts of free TRP-2 and 4-fold higher amounts of CpG-PTO were necessary to induce the same CTL response.

Series [2] has as its system TRP-2-specific T cells (splenocytes). In words: Avidity of TRP-2-specific T cells (splenocyte proliferation, ATPlite). Format: in vivo, BL6 mice. To be noted: after two immunizations. The procedure: FIG. 22: Vaccination with liposomal-encapsulated TRP-2 plus CpG-PTO. The vaccination with liposomal-encapsulated TRP-2 plus CpG-PTO generates high avidity T cells. BL6 mice were vaccinated with 10 μg liposomal or 100 μg free TRP-2 plus 5 nmol free CpG ODN at weekly intervals up to three times. Lymphocytes were isolated from spleen (A) and lymph node (LN) (B) one week after last immunization and an IFNγ capture assay was performed as described. C, Avidity of T cells after vaccination with liposomal and free TRP-2 plus CpG ODN. One week after the last immunization splenocytes were nylon-wool enriched and cultured for 5 days in vitro in the presence of high dose (10^−6 mol/l) or low dose TRP-2 (10^−9 mol/l) or control peptide […] (10^−6 mol/l) with low dose IL2 (30 U/ml). Proliferation was estimated by a luminescence assay-based detection system measuring ATP content. Proliferation of splenocytes in the presence of anti-TCR plus anti-CD28 mAb was set to 100%. Representative data from one of two similar experiments are shown.
Finally, the avidity of TRP-2-specific CTLs in animals immunized with liposomal or free TRP-2, respectively (FIG. 21) was compared. […] In parallel to the IFNγ secretion assay nylon-wool column enriched splenocytes were cultured with high (10^−6 mol/l) and low dose TRP-2 (10^−9 mol/l), for 5 days and cell proliferation was determined using the ATPlite™-M system. […]
In general terms: In ATP-based viability assays light output follows the ATP content of the culture.

For another series, the system named is murine B cells. In words: Induction of B cell proliferation (CFSE). To be noted: ODN 5 to 200 nmol/l, free or AVE3-encapsulated. It counts as cell-based. The source says:
FIG. 12: Comparison of the biological activity of CpG-PTO and CpG-PDO. Cells were labeled with CFSE before being stimulated for 48 hrs with 0 to 0.2 μmol/l end concentration of ODNs in saline or liposomal. (black diamonds) CpG-PTO in saline; (grey diamonds) CpG-PDO in saline; (black squares) liposomal CpG-PTO; (grey squares) liposomal CpG-PDO. Dead cells were excluded by propidium iodide staining.
CpG oligonucleotides have been described to induce B cell proliferation. The effects of free or encapsulated CpG phosphorothioate oligonucleotides (CpG-PTO) (see example 6) on proliferation of murine B cells (FIG. 11A) were compared. […] Induction of B cell proliferation was dependent on the concentration of applied ODN with strong B cell proliferation observed between 50 to 200 nmol/l encapsulated ODN. Similar values were obtained for CpG-ODN encapsulated at different concentrations (between 4.6 μg/μmol lipid to 93.5 μg/μmol lipid). No induction of B cell proliferation was observed using free or encapsulated non-CpG-ODN (FIG. 11B).
CpG phosphorothioate (CpG-PTO) or CpG phosphodiester (CpG-PDO) oligonucleotides (see example 6) were analyzed for the induction of B cell proliferation in free or AVE3-encapsulated form using ODN concentrations between 5 to 200 nmol/l. […]

Data on 2 substances can be found in patent publication US20070148220A1, “Liposomes and liposomal compositions for vaccination and drug delivery” (priority 2003, published 2007).

Turning to “free TRP-2: antigenic peptide TRP-2 (SVYDFFVWL), not encapsulated”, the “higher amounts necessary to induce the same CTL response” value in series [1] came out at 10 fold. The “avidity of T cells, liposomal vs. free TRP-2” value in series [2] was “more polyclonal response of splenocytes consisting of low and high avidity T cells”.

Take “non-CpG-ODN: non-CpG-1982-PTO, 5′-TCCAGGACTTCTCTCAGGT-3′, free (DNA, all phosphorothioate, methylation of C not given here)”: in the series with murine B cells, the “induction of B cell proliferation” value is reported as “No induction”.
